Data set [1] concerns Plasmodium falciparum. The experiment in a line: Antimalarial activity against Plasmodium falciparum W2 by [3H]hypoxanthine uptake. The class given is functional, organism-based.
Data set [2] in a line: Cytotoxicity against mouse J774 cells assessed as cell viability at 0.1 ug/mL after 24 hrs by MTT assay. In kind it is cell-based. The settings on record: read-out: Activity. (In general: Tetrazolium dyes change colour on reduction, which living cells bring about.)
The nature of data set [3]: Cytotoxicity against mouse J774 cells assessed as cell viability at 1 ug/mL after 24 hrs by MTT assay. In kind it is cell-based. The settings on record: read-out: Activity.
Data set [4] can be described thus: Cytotoxicity against mouse J774 cells assessed as cell viability at 10 ug/mL after 24 hrs by MTT assay. The class given is cell-based. The settings on record: read-out: Activity.
Data set [5] in a line: Cytotoxicity against mouse J774 cells assessed as cell viability at 100 ug/mL after 24 hrs by MTT assay. In kind it is cell-based. As to conditions: read-out: Activity.
The subject of data set [6] is Plasmodium falciparum. Nature of the data set: Antimalarial activity against chloroquine-sensitive Plasmodium falciparum 3D7 by [3H]hypoxanthine uptake. In kind it is functional, organism-based.

Each structure is given as a SMILES string. A value given as a limit tells only on which side of the number the result lay.

Among the data in ChEMBL document CHEMBL1153608, “Synthesis, antimalarial evaluation and molecular modeling studies of hydroxyethylpiperazines, potential aspartyl protease inhibitors, part 2” (Eur J Med Chem, 2009) are IC50 and viability values, retold here.

Usually IC50 stands for the point on the concentration scale where inhibition reaches its midpoint.

For `Cc1ccc(S(=O)(=O)N[C@@H](Cc2ccccc2)[C@H](O)CN2CCN(Cc3ccc([N+](=O)[O-])cc3)CC2)cc1`, the IC50 with Plasmodium falciparum [1] was over 90 µM. The viability at 24 h, 0.1 ug/mL in data set [2] is 91%. Besides, the viability at 24 h, 1 ug/mL in data set [3] stood at 100%. Also, the viability at 24 h, 10 ug/mL in data set [4] came out at 93%. For the same molecule, the viability at 24 h, 100 ug/mL in data set [5] was found to be 92%.
The like results for `O=[N+]([O-])c1ccc(S(=O)(=O)N[C@@H](Cc2ccccc2)[C@H](O)CN2CCN(Cc3ccc4c(c3)OCO4)CC2)cc1` were, in that order, 44 µM, 100%, 100%, 100% and 40%.
Consider `Nc1ccc(S(=O)(=O)N[C@@H](Cc2ccccc2)[C@H](O)CN2CCN(Cc3ccc4c(c3)OCO4)CC2)cc1`, for which the IC50 in the data set on Plasmodium falciparum [6] was found to be 4.6 µM; in the data set on Plasmodium falciparum [1] it was 4.8 µM. Further, in data set [2], the viability at 24 h, 0.1 ug/mL was found to be 100%. The viability at 24 h, 1 ug/mL in data set [3] was found to be 100%. Further, in data set [4], the viability at 24 h, 10 ug/mL stood at 99%. Besides, the viability at 24 h, 100 ug/mL in data set [5] came to 55%.
`Cc1ccc(S(=O)(=O)N[C@@H](Cc2ccccc2)[C@H](O)CN2CCN(Cc3ccc(Cl)cc3)CC2)cc1` had an IC50 in the data set with Plasmodium falciparum [1] of 35.1 µM. Moreover, the viability at 24 h, 0.1 ug/mL in data set [2] amounted to 100%. Moreover, in data set [3], the viability at 24 h, 1 ug/mL was found to be 98%. Further, the viability at 24 h, 10 ug/mL in data set [4] amounted to 90%. In addition, the viability at 24 h, 100 ug/mL in data set [5] was found to be 22%.
As for `O=C(N[C@@H](Cc1ccccc1)[C@H](O)CN1CCN(Cc2ccc3c(c2)OCO3)CC1)c1ccc2c(c1)OCO2`, in the data set with Plasmodium falciparum [1], it took 25.4 µM to reach half-maximal inhibition (IC50). Further, in data set [2], the viability at 24 h, 0.1 ug/mL stood at 100%. In data set [3], the viability at 24 h, 1 ug/mL came to 100%. Also, the viability at 24 h, 10 ug/mL in data set [4] was found to be 95%. The viability at 24 h, 100 ug/mL in data set [5] is 61%.
Regarding `Cc1ccc(S(=O)(=O)N[C@@H](Cc2ccccc2)[C@H](O)CN2CCN(Cc3ccc(F)cc3)CC2)cc1`, the midpoint of inhibition in the data set on Plasmodium falciparum [1], the IC50, lay at 43 µM. The viability at 24 h, 0.1 ug/mL in data set [2] was 100%. The viability at 24 h, 1 ug/mL in data set [3] stood at 100%. For the same molecule, in data set [4], the viability at 24 h, 10 ug/mL came out at 92%. Besides, the viability at 24 h, 100 ug/mL in data set [5] amounted to 15%.
`Cc1c(O)cccc1C(=O)N[C@@H](Cc1ccccc1)[C@H](O)CN1CCN(Cc2ccc3c(c2)OCO3)CC1` showed an IC50 in the data set on Plasmodium falciparum [1] of 5.9 µM. For the same molecule, the viability at 24 h, 0.1 ug/mL in data set [2] stood at 100%. In addition, in data set [3], the viability at 24 h, 1 ug/mL was found to be 75%. In addition, the viability at 24 h, 10 ug/mL in data set [4] was determined as 8%. Besides, the viability at 24 h, 100 ug/mL in data set [5] turned out to be 8%.
On to `Cc1ccc(S(=O)(=O)N[C@@H](Cc2ccccc2)[C@H](O)CN2CCN(Cc3ccccc3)CC2)cc1`, for which, in the data set on Plasmodium falciparum [1], the IC50 is over 90 µM. Besides, the viability at 24 h, 0.1 ug/mL in data set [2] came to 100%. Also, in data set [3], the viability at 24 h, 1 ug/mL worked out at 86%. Also, the viability at 24 h, 10 ug/mL in data set [4] was 88%. Besides, the viability at 24 h, 100 ug/mL in data set [5] was 5%.
For `COc1ccc(S(=O)(=O)N[C@@H](Cc2ccccc2)[C@H](O)CN2CCN(Cc3ccc4c(c3)OCO4)CC2)cc1`, 34.3 µM corresponded to half-maximal inhibition in the data set with Plasmodium falciparum [1] (IC50). Also, in data set [2], the viability at 24 h, 0.1 ug/mL stood at 100%. Besides, the viability at 24 h, 1 ug/mL in data set [3] was 99%. Further, in data set [4], the viability at 24 h, 10 ug/mL was found to be 90%. The viability at 24 h, 100 ug/mL in data set [5] was determined as 12%.
The like results for `O=C(N[C@@H](Cc1ccccc1)[C@H](O)CN1CCN(Cc2ccc3c(c2)OCO3)CC1)c1c(Cl)cccc1Cl` were, in that order, 55.5 µM, 100%, 90%, 84% and 43%.
As to `O=S(=O)(N[C@@H](Cc1ccccc1)[C@H](O)CN1CCN(Cc2ccc3c(c2)OCO3)CC1)c1ccc(Br)cc1`, the figures for the IC50 in the data set with Plasmodium falciparum [6] and in the data set with Plasmodium falciparum [1] were 5.7 µM and 5.6 µM, respectively. Also, the viability at 24 h, 0.1 ug/mL in data set [2] is 100%. The viability at 24 h, 1 ug/mL in data set [3] came out at 100%. In addition, in data set [4], the viability at 24 h, 10 ug/mL worked out at 96%. In data set [5], the viability at 24 h, 100 ug/mL worked out at 5%.
As to `O=C(N[C@@H](Cc1ccccc1)[C@H](O)CN1CCN(Cc2ccc3c(c2)OCO3)CC1)c1ccccc1`, the IC50 with Plasmodium falciparum [1] was 69.4 µM. Besides, in data set [2], the viability at 24 h, 0.1 ug/mL stood at 100%. Moreover, in data set [3], the viability at 24 h, 1 ug/mL amounted to 100%. Also, the viability at 24 h, 10 ug/mL in data set [4] worked out at 91%. For the same molecule, the viability at 24 h, 100 ug/mL in data set [5] came to 38%.
For `O=C(N[C@@H](Cc1ccccc1)[C@H](O)CN1CCN(Cc2ccc3c(c2)OCO3)CC1)c1cc(Cl)cc(Cl)c1`, half-maximal inhibition with Plasmodium falciparum [1] (IC50) was put at 47.2 µM. Also, the viability at 24 h, 0.1 ug/mL in data set [2] was 98%. Also, the viability at 24 h, 1 ug/mL in data set [3] came to 100%. Further, the viability at 24 h, 10 ug/mL in data set [4] worked out at 98%. The viability at 24 h, 100 ug/mL in data set [5] was 93%.
Take `Cc1ccc(S(=O)(=O)N[C@@H](Cc2ccccc2)[C@H](O)CN2CCN(Cc3ccc(N)cc3)CC2)cc1`: the IC50 in the data set on Plasmodium falciparum [1] is over 90 µM. The viability at 24 h, 0.1 ug/mL in data set [2] came out at 100%. Also, the viability at 24 h, 1 ug/mL in data set [3] was determined as 90%. Also, in data set [4], the viability at 24 h, 10 ug/mL worked out at 77%. Besides, the viability at 24 h, 100 ug/mL in data set [5] was determined as 10%.
Molecule `O=C(N[C@@H](Cc1ccccc1)[C@H](O)CN1CCN(Cc2ccc3c(c2)OCO3)CC1)c1c(F)cccc1F` registered an IC50 in the data set with Plasmodium falciparum [1] of 47.4 µM. Moreover, in data set [2], the viability at 24 h, 0.1 ug/mL came out at 85%. The viability at 24 h, 1 ug/mL in data set [3] is 87%. The viability at 24 h, 10 ug/mL in data set [4] came out at 83%. Moreover, in data set [5], the viability at 24 h, 100 ug/mL came to 51%.
The like results for `COc1ccc(CN2CCN(C[C@@H](O)[C@H](Cc3ccccc3)NS(=O)(=O)c3ccc(C)cc3)CC2)cc1OC` were, in that order, over 90 µM, 100%, 100%, 92% and 9%.
Take `O=S(=O)(N[C@@H](Cc1ccccc1)[C@H](O)CN1CCN(Cc2ccc3c(c2)OCO3)CC1)c1ccc(F)cc1`: the IC50 in the data set on Plasmodium falciparum [1] stood at 42.5 µM. In addition, the viability at 24 h, 0.1 ug/mL in data set [2] is 100%. For the same molecule, the viability at 24 h, 1 ug/mL in data set [3] was 94%. Further, the viability at 24 h, 10 ug/mL in data set [4] turned out to be 83%. In addition, the viability at 24 h, 100 ug/mL in data set [5] amounted to 4%.
Turning to `COc1ccc(CN2CCN(C[C@@H](O)[C@H](Cc3ccccc3)NS(=O)(=O)c3ccc(C)cc3)CC2)cc1`, in the data set on Plasmodium falciparum [1], the IC50 was over 90 µM. Also, the viability at 24 h, 0.1 ug/mL in data set [2] stood at 100%. Moreover, the viability at 24 h, 1 ug/mL in data set [3] turned out to be 90%. Further, the viability at 24 h, 10 ug/mL in data set [4] worked out at 84%. Also, the viability at 24 h, 100 ug/mL in data set [5] was determined as 6%.
In the data set on Plasmodium falciparum [1], `Cc1ccc(S(=O)(=O)N[C@@H](Cc2ccccc2)[C@H](O)CN2CCN(Cc3ccc4c(c3)OCO4)CC2)cc1` yielded an IC50 of 16.9 µM. Besides, in data set [2], the viability at 24 h, 0.1 ug/mL turned out to be 100%. Besides, the viability at 24 h, 1 ug/mL in data set [3] amounted to 100%. Moreover, in data set [4], the viability at 24 h, 10 ug/mL amounted to 98%. Moreover, the viability at 24 h, 100 ug/mL in data set [5] worked out at 49%.
